# Results: patent publication US7666836B2, “Method for the therapeutic management of endometriosis” (priority 1999, dated 2010)
# Non-standard residues stand in square brackets, D forms with d. Residues, ends and D or L forms follow the SMILES beside them. dPhe(4-Cl) = N[C@H](Cc1ccc(Cl)cc1)C(=O)O; d2Nal = N[C@H](Cc1ccc2ccccc2c1)C(=O)O; dCit = NC(=O)NCCC[C@@H](N)C(=O)O; d3Pal = N[C@H](Cc1cccnc1)C(=O)O
# Assays:
# [1] = tested on: estradiol serum levels; experiment: estradiol serum levels after weekly administration of cetrorelix (FIG. 2); format: in vivo
# Source text: […] The estradiol serum levels are between about 35-80 pg/ml, preferably between about 45-75 pg/ml, more preferably between about 50-75 pg/ml.
# [2] = tested on: patients with confirmed endometriosis; experiment: weekly Cetrorelix acetate treatment of nine patients with confirmed endometriosis (FIG. 1); format: in vivo, human; details: 3 mg s.c. weekly for 8 weeks; for hot flushes or other (estradiol) withdrawal symptoms: patients with endometriosis
# [3] = tested on: patients with endometriosis; details: 3 mg s.c. per week over eight weeks; stages rAFS I-II; cited from earlier work
# [4] = tested on: patients with endometriosis; experiment: weekly Cetrotide s.c. over eight weeks in endometriosis patients with symptomatic pain; format: in vivo, human; details: 3 mg s.c. per week over eight weeks
# Experimental: Aim of the medicinal therapy of patients with endometriosis with symptomatic pain is to obtain a treatment without side effects, especially avoiding the negative effects of estrogen suppression and which is long-lasting after finishing therapy. The specific pharmacological mode of action of LHRH antagonists allows new possibilities for treatment of endometriosis.
# The weekly administration of an adequate dose of an LHRH antagonist, e.g. 3 mg Cetrotide® s.c./per week over a period of eight weeks leads to a controlled suppression of estrogen secretion so that serum concentrations between about 35 pg/ml and about 80 pg/ml, preferably between about 45-75 pg/ml, more preferably between about 50-75 pg/ml are obtained. […] Also the development of osteoporosis can be avoided.
smiles,measurement,setting,value
CC(=O)N[C@H](Cc1ccc2ccccc2c1)C(=O)N[C@H](Cc1ccc(Cl)cc1)C(=O)N[C@H](Cc1cccnc1)C(=O)N[C@@H](CO)C(=O)N[C@@H](Cc1ccc(O)cc1)C(=O)N[C@H](CCCNC(N)=O)C(=O)N[C@@H](CC(C)C)C(=O)N[C@@H](CCCNC(=N)N)C(=O)N1CCC[C@H]1C(=O)N[C@H](C)C(N)=O [Cetrorelix acetate] (Ac-[d2Nal][dPhe(4-Cl)][d3Pal]SY[dCit]LRP[dA]-NH2),estradiol serum levels (FIG. 2),[1]; weekly dose of 1 mg once per week,35 to 80 pg/mL
same,estradiol serum levels (FIG. 2),[1]; weekly dose of 3 mg once per week,35 to 80 pg/mL
same,proliferation of the endometrium at the end of treatment (histological biopsies),[2],no proliferation of the endometrium
same,proliferation of the endometrium at the end of treatment (histological biopsies),[2]; listed as Cetrorelix,without proliferation of the endometrium
same,ovarian cyst formation,[2]; nine patients,No ovarian cyst formation occurred
same,progress of the disease confirmed by 2nd look laparascopy,[2]; nine patients,without any progress of the disease
same,hot flushes or other (estradiol) withdrawal symptoms,[2],avoiding any hot flushes or other withdrawal symptoms
same,hot flushes or other (estradiol) withdrawal symptoms,[2]; listed as Cetrorelix,without any signs of estradiol withdrawal symptoms
same,clinical regression of the disease (decrease of the implantation area),[3],clinical regression of the disease
same,symptomatic pain,[4]; all stages of the disease (rAFS I-IV),effectively suppressed
same,vegetative symptoms,[4]; serum concentration range about 35-80 pg/ml,no vegetative symptoms arise
